Measurements taken from the supplement of paper PMC11061612.

What was measured:
[1] = tested on: OCUB-M (Breast Carcinoma); assay: combination Emax (second highest fraction inhibited in the dose matrix, 72 h); higher = more inhibition; extreme values may be limits of the assay
Procedure, shortened: (§1)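 Cell lines grown in DMEM/F12 or RPMI with 10% FBS were plated in 1536-well plates and held 24 hours at 37°C, 5% CO2 before 72 hours of exposure to two-drug dose matrices, with DMSO typically at 0.2%. CellTiter-Glo 2.0 luminescence gave viability, which was converted to inhibition. Vehicle wells were set to 0 and blank wells to 1. Combination Emax is the second-highest inhibition in the matrix, and Bliss excess is the observed combination effect minus the expected EA + EB − EA·EB, where EA and EB are the single-agent effects.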

EW-13 (Ewing's Sarcoma) = assay: as above
Procedure, shortened: as §1

[2] = tested on: KLE (Endometrial Carcinoma); assay: as above
Procedure, shortened: as §1

[3] = tested on: KYSE-150 (Esophageal Squamous Cell Carcinoma); assay: as above
Procedure, shortened: as §1

[4] = tested on: EMC-BAC-2 (Non-Small Cell Lung Carcinoma); assay: as above
Procedure, shortened: as §1

[5] = tested on: NCI-H513 (Other Solid Carcinomas); assay: as above
Procedure, shortened: as §1

GI-1 (Glioblastoma) = assay: as above
Procedure, shortened: as §1

IMR-5 (Neuroblastoma) = assay: as above
Procedure, shortened: as §1

[6] = tested on: KINGS-1 (Low Grade Glioma); assay: as above
Procedure, shortened: as §1

[7] = tested on: KYSE-50 (Esophageal Squamous Cell Carcinoma); assay: as above
Procedure, shortened: as §1

[8] = tested on: EBC-1 (Squamous Cell Lung Carcinoma); assay: as above
Procedure, shortened: as §1

[9] = tested on: OCUB-M (Breast Carcinoma); assay: Bliss excess, mean over the matrix (fraction); higher = more synergy
Procedure, shortened: as §1

[10] = tested on: HuP-T3 (Pancreatic Carcinoma); assay: as above
Procedure, shortened: as §1

[11] = tested on: VMRC-LCD (Lung Adenocarcinoma); assay: as above
Procedure, shortened: as §1

[12] = tested on: NCI-H1573 (Lung Adenocarcinoma); assay: as above
Procedure, shortened: as §1

EW-3 (Ewing's Sarcoma) = assay: as above
Procedure, shortened: as §1

[13] = tested on: NCI-N87 (Gastric Carcinoma); assay: as above
Procedure, shortened: as §1
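Throughout, for Bliss excess, mean over the matrix: after 72 h of two-drug dosing.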

| Structure (SMILES) | combination Emax [1] | combination Emax (EW-13 (Ewing's Sarcoma)) | combination Emax [2] | combination Emax [3] | combination Emax [4] | combination Emax [5] | combination Emax (GI-1 (Glioblastoma)) | combination Emax (IMR-5 (Neuroblastoma)) | combination Emax [6] | combination Emax [7] | combination Emax [8] | Bliss excess [9] | Bliss excess [10] | Bliss excess [11] | Bliss excess [12] | Bliss excess (EW-3 (Ewing's Sarcoma)) | Bliss excess [13] |
| --- | --- | --- | --- | --- | --- | --- | --- | --- | --- | --- | --- | --- | --- | --- | --- | --- | --- |
| CN(C)CCCOc1ccc(-c2ccc3ncc4c(c3c2)n(C2CCOCC2)c(=O)n4C)cn1 [AZD0156] + C=CCn1c(=O)c2cnc(Nc3ccc(N4CCN(C)CC4)cc3)nc2n1-c1cccc(C(C)(C)O)n1 [AZD1775] (first compound max 1 µM, partner max 1 µM) | 0.209 | 0.444 | 0.531 | 0.448 | 0.304 | 0.393 | 0.88 | 0.741 | 0.293 | 0.27 | 0.165 | -0.0958 | -0.051 | -0.0399 | -0.0537 | 0.002 | -0.0181 |
| CN(C)CCCOc1ccc(-c2ccc3ncc4c(c3c2)n(C2CCOCC2)c(=O)n4C)cn1 [AZD0156] + CCN(CCO)CCCOc1ccc2c(Nc3cc(CC(=O)Nc4cccc(F)c4)[nH]n3)ncnc2c1 [AZD2811] (first compound max 1 µM, 7x7, partner max 1 µM) | 0.727 | 0.332 | 0.334 | 0.422 | 0.253 | 0.136 | 0.411 | 0.967 | 0.167 | 0.204 | 0.171 | -0.0736 | -0.0379 | -0.0476 | -0.0157 | -0.0458 | 0.0046 |
| CN(C)CCCOc1ccc(-c2ccc3ncc4c(c3c2)n(C2CCOCC2)c(=O)n4C)cn1 [AZD0156] + C[C@@H]1COCCN1C2=NC(=NC(=C2)C3(CC3)[S@](=N)(=O)C)C4=C5C=CNC5=NC=C4 [AZD6738] (first compound max 1 µM, 7x7, partner max 10 µM) | 0.494 | 0.581 | 0.469 | 0.589 | 0.676 | 0.315 | 0.926 | 0.926 | 0.25 | 0.674 | 0.535 | -0.026 | 0.0181 | -0.0343 | -0.0098 | -0.0721 | -0.0286 |
| C=CCn1c(=O)c2cnc(Nc3ccc(N4CCN(C)CC4)cc3)nc2n1-c1cccc(C(C)(C)O)n1 [AZD1775] + C[C@@H]1COCCN1C2=NC(=NC(=C2)C3(CC3)[S@](=N)(=O)C)C4=C5C=CNC5=NC=C4 [AZD6738] (first compound max 1 µM, partner max 10 µM) | 0.799 | 0.653 | 0.59 | 0.756 | 0.571 | 0.439 | 0.984 | 0.986 | 0.533 | 0.694 | 0.616 | 0.0642 | 0.0338 | 0.0369 | 0.0215 | -0.131 | -0.0824 |
| C=CCn1c(=O)c2cnc(Nc3ccc(N4CCN(C)CC4)cc3)nc2n1-c1cccc(C(C)(C)O)n1 [AZD1775] + O=C(c1cc(Cc2n[nH]c(=O)c3ccccc23)ccc1F)N1CCN(C(=O)C2CC2)CC1 [Olaparib] (first compound max 1 µM, partner max 10 µM) | 0.504 | 0.622 | 0.456 | 0.493 | 0.269 | 0.389 | 0.917 | 0.83 | 0.381 | 0.301 | 0.272 | -0.0211 | -0.0047 | -0.0597 | -0.0251 | -0.0619 | -0.046 |
| CCN(CCO)CCCOc1ccc2c(Nc3cc(CC(=O)Nc4cccc(F)c4)[nH]n3)ncnc2c1 [AZD2811] + C=CCn1c(=O)c2cnc(Nc3ccc(N4CCN(C)CC4)cc3)nc2n1-c1cccc(C(C)(C)O)n1 [AZD1775] (first compound max 1 µM, partner max 1 µM) | 0.779 | 0.355 | 0.564 | 0.533 | 0.223 | 0.368 | 0.947 | 0.998 | 0.276 | 0.301 | 0.24 | 0.0312 | -0.0366 | 0.0049 | -0.0457 | 0.0844 | -0.0657 |
| CCN(CCO)CCCOc1ccc2c(Nc3cc(CC(=O)Nc4cccc(F)c4)[nH]n3)ncnc2c1 [AZD2811] + C[C@@H]1COCCN1C2=NC(=NC(=C2)C3(CC3)[S@](=N)(=O)C)C4=C5C=CNC5=NC=C4 [AZD6738] (first compound max 1 µM, 7x7, partner max 10 µM) | 0.748 | 0.638 | 0.387 | 0.533 | 0.459 | 0.283 | 0.922 | 1 | 0.302 | 0.507 | 0.32 | -0.107 | -0.067 | -0.0853 | -0.0613 | -0.0152 | -0.0855 |
| CCN(CCO)CCCOc1ccc2c(Nc3cc(CC(=O)Nc4cccc(F)c4)[nH]n3)ncnc2c1 [AZD2811] + O=C(c1cc(Cc2n[nH]c(=O)c3ccccc23)ccc1F)N1CCN(C(=O)C2CC2)CC1 [Olaparib] (first compound max 1 µM, 7x7, partner max 10 µM) | 0.805 | 0.701 | 0.16 | 0.515 | 0.31 | 0.0855 | 0.328 | 0.962 | 0.241 | 0.282 | 0.216 | -0.0413 | -0.0195 | -0.0949 | -0.016 | -0.103 | 0.0237 |
